Measurements as given in the NIST ThermoML archive (doi:10.1021/je060271a).
Several values for one entry are separate records, joined by “and”; a condition that tells them apart may be missing. Equal values may be shown once. Numbers after ± are expanded uncertainties.

Conditions: Liquid, Vibrating tube method

CCCCC(=O)OCC(COC(=O)CCCC)(COC(=O)CCCC)COC(=O)CCCC [pentaerythritol tetrapentanoate]
Conditions | mass density
283.15 K, 33510 kPa | 1045.5 ± 1.3 kg/m3
283.15 K, 33550 kPa | 1045.6 ± 1.3 kg/m3
283.15 K, 33599 kPa | 1045.6 ± 1.3 kg/m3
283.15 K, 33639 kPa | 1045.6 ± 1.3 kg/m3
283.15 K, 33681 kPa | 1045.6 ± 1.3 kg/m3
283.15 K, 33731 kPa | 1045.6 ± 1.3 kg/m3
283.15 K, 33772 kPa | 1045.7 ± 1.3 kg/m3
283.15 K, 33815 kPa | 1045.7 ± 1.3 kg/m3
283.15 K, 33865 kPa | 1045.8 ± 1.3 kg/m3
283.15 K, 33908 kPa | 1045.8 ± 1.3 kg/m3
283.15 K, 33951 kPa | 1045.8 ± 1.3 kg/m3
283.15 K, 34004 kPa | 1045.7 ± 1.3 kg/m3
283.15 K, 34048 kPa | 1045.8 ± 1.3 kg/m3
283.15 K, 34093 kPa | 1045.7 ± 1.3 kg/m3
283.15 K, 34144 kPa | 1045.8 ± 1.3 kg/m3
283.15 K, 34173 kPa | 1046 ± 1.3 kg/m3
283.15 K, 34198 kPa | 1045.9 ± 1.3 kg/m3
283.15 K, 34220 kPa | 1046 ± 1.3 kg/m3
283.15 K, 34242 kPa | 1045.8 ± 1.3 kg/m3
283.15 K, 34265 kPa | 1045.9 ± 1.3 kg/m3
283.15 K, 34290 kPa | 1045.9 ± 1.3 kg/m3
283.15 K, 34312 kPa | 1046 ± 1.3 kg/m3
283.15 K, 34335 kPa | 1046 ± 1.3 kg/m3
283.15 K, 34364 kPa | 1045.9 ± 1.3 kg/m3
283.15 K, 34387 kPa | 1045.9 ± 1.3 kg/m3
283.15 K, 34410 kPa | 1046 ± 1.3 kg/m3
283.15 K, 34438 kPa | 1046 ± 1.3 kg/m3
283.15 K, 34461 kPa | 1046 ± 1.3 kg/m3
283.15 K, 34485 kPa | 1046 ± 1.3 kg/m3
283.15 K, 34516 kPa | 1046.1 ± 1.3 kg/m3
283.15 K, 34542 kPa | 1046 ± 1.3 kg/m3
283.15 K, 34572 kPa | 1046.1 ± 1.3 kg/m3
283.15 K, 34604 kPa | 1046 ± 1.3 kg/m3
283.15 K, 34620 kPa | 1046.1 ± 1.3 kg/m3
283.15 K, 34636 kPa | 1046 ± 1.3 kg/m3
283.15 K, 34638 kPa | 1046.3 ± 1.3 kg/m3
283.15 K, 34639 kPa | 1046.1 ± 1.3 kg/m3
283.16 K, 25316 kPa | 1041.3 ± 1.3 kg/m3
303.15 K, 106.42 kPa | 1010.9 ± 1.2 kg/m3
303.15 K, 106.59 kPa | 1010.8 ± 1.2 kg/m3 and 1010.9 ± 1.2 kg/m3
303.15 K, 106.6 kPa | 1010.9 ± 1.2 kg/m3 and 1010.8 ± 1.2 kg/m3
303.15 K, 106.76 kPa | 1010.9 ± 1.2 kg/m3
303.15 K, 106.77 kPa | 1010.9 ± 1.2 kg/m3
303.15 K, 106.94 kPa | 1010.9 ± 1.2 kg/m3 and 1010.8 ± 1.2 kg/m3
303.15 K, 107.11 kPa | 1010.9 ± 1.2 kg/m3
303.15 K, 107.29 kPa | 1010.9 ± 1.2 kg/m3
303.15 K, 108.17 kPa | 1010.9 ± 1.2 kg/m3
303.15 K, 109.2 kPa | 1010.9 ± 1.2 kg/m3
303.15 K, 110.59 kPa | 1010.9 ± 1.2 kg/m3
303.15 K, 112.86 kPa | 1010.8 ± 1.2 kg/m3
303.15 K, 117.2 kPa | 1011 ± 1.2 kg/m3
303.15 K, 123.99 kPa | 1010.9 ± 1.2 kg/m3
303.15 K, 133.19 kPa | 1010.9 ± 1.2 kg/m3
303.15 K, 144.48 kPa | 1010.9 ± 1.2 kg/m3
303.15 K, 156.14 kPa | 1010.9 ± 1.2 kg/m3
303.15 K, 171.79 kPa | 1010.8 ± 1.2 kg/m3
303.15 K, 193.18 kPa | 1011 ± 1.2 kg/m3
303.15 K, 228.98 kPa | 1011 ± 1.2 kg/m3
303.15 K, 269.29 kPa | 1010.9 ± 1.2 kg/m3
303.15 K, 314.67 kPa | 1011 ± 1.2 kg/m3
303.15 K, 395.83 kPa | 1011.2 ± 1.2 kg/m3
303.15 K, 513.49 kPa | 1011.2 ± 1.2 kg/m3
303.15 K, 630.95 kPa | 1011.3 ± 1.2 kg/m3
303.15 K, 647.46 kPa | 1011.3 ± 1.2 kg/m3
303.15 K, 648.16 kPa | 1011.3 ± 1.2 kg/m3
303.15 K, 649.02 kPa | 1011.3 ± 1.2 kg/m3
303.15 K, 649.71 kPa | 1011.3 ± 1.2 kg/m3
303.15 K, 650.58 kPa | 1011.3 ± 1.2 kg/m3
303.15 K, 651.45 kPa | 1011.3 ± 1.2 kg/m3
303.15 K, 652.32 kPa | 1011.2 ± 1.2 kg/m3
303.15 K, 652.67 kPa | 1011.3 ± 1.2 kg/m3
303.15 K, 653.36 kPa | 1011.3 ± 1.2 kg/m3
303.15 K, 654.41 kPa | 1011.3 ± 1.2 kg/m3
303.15 K, 654.92 kPa | 1011.2 ± 1.2 kg/m3
303.15 K, 655.97 kPa | 1011.2 ± 1.2 kg/m3
303.15 K, 657.2 kPa | 1011.2 ± 1.2 kg/m3
303.15 K, 657.72 kPa | 1011.4 ± 1.2 kg/m3
303.15 K, 658.58 kPa | 1011.3 ± 1.2 kg/m3
303.15 K, 659.27 kPa | 1011.1 ± 1.2 kg/m3
303.15 K, 660.31 kPa | 1011.3 ± 1.2 kg/m3
303.15 K, 661.18 kPa | 1011.3 ± 1.2 kg/m3
303.15 K, 661.53 kPa | 1011.3 ± 1.2 kg/m3
303.15 K, 662.58 kPa | 1011.2 ± 1.2 kg/m3
303.15 K, 664.14 kPa | 1011.4 ± 1.2 kg/m3
303.15 K, 666.75 kPa | 1011.3 ± 1.2 kg/m3
303.15 K, 667.79 kPa | 1011.3 ± 1.2 kg/m3
303.15 K, 668.65 kPa | 1011.3 ± 1.2 kg/m3
303.15 K, 669.35 kPa | 1011.2 ± 1.2 kg/m3
303.15 K, 670.22 kPa | 1011.2 ± 1.2 kg/m3
303.15 K, 675.62 kPa | 1011.2 ± 1.2 kg/m3
303.15 K, 675.96 kPa | 1011.2 ± 1.2 kg/m3
303.15 K, 676.49 kPa | 1011.4 ± 1.2 kg/m3
303.15 K, 677.36 kPa | 1011.3 ± 1.2 kg/m3
303.15 K, 678.05 kPa | 1011.3 ± 1.2 kg/m3
303.15 K, 679.27 kPa | 1011.2 ± 1.2 kg/m3
303.15 K, 680.14 kPa | 1011.3 ± 1.2 kg/m3
303.15 K, 681.01 kPa | 1011.3 ± 1.2 kg/m3
303.15 K, 681.71 kPa | 1011.3 ± 1.2 kg/m3
303.15 K, 682.41 kPa | 1011.2 ± 1.2 kg/m3
303.15 K, 685.7 kPa | 1011.3 ± 1.2 kg/m3
303.15 K, 686.57 kPa | 1011.3 ± 1.2 kg/m3
303.15 K, 688.83 kPa | 1011.2 ± 1.2 kg/m3
303.15 K, 689.69 kPa | 1011.2 ± 1.2 kg/m3
303.15 K, 690.56 kPa | 1011.4 ± 1.2 kg/m3
303.15 K, 691.43 kPa | 1011.3 ± 1.2 kg/m3
303.15 K, 692.3 kPa | 1011.4 ± 1.2 kg/m3
303.15 K, 693.35 kPa | 1011.3 ± 1.2 kg/m3
303.15 K, 694.56 kPa | 1011.3 ± 1.2 kg/m3
303.15 K, 695.08 kPa | 1011.3 ± 1.2 kg/m3
303.15 K, 696.12 kPa | 1011.3 ± 1.2 kg/m3
303.15 K, 697.16 kPa | 1011.3 ± 1.2 kg/m3
303.15 K, 698.02 kPa | 1011.3 ± 1.2 kg/m3
303.15 K, 698.55 kPa | 1011.3 ± 1.2 kg/m3
303.15 K, 699.59 kPa | 1011.3 ± 1.2 kg/m3
303.15 K, 703.59 kPa | 1011.2 ± 1.2 kg/m3
303.15 K, 704.11 kPa | 1011.3 ± 1.2 kg/m3
303.15 K, 705.15 kPa | 1011.3 ± 1.2 kg/m3
303.15 K, 706.21 kPa | 1011.3 ± 1.2 kg/m3
303.15 K, 707.07 kPa | 1011.3 ± 1.2 kg/m3
303.15 K, 708.28 kPa | 1011.3 ± 1.2 kg/m3
303.15 K, 709.15 kPa | 1011.2 ± 1.2 kg/m3
303.15 K, 710.02 kPa | 1011.3 ± 1.2 kg/m3
303.15 K, 711.24 kPa | 1011.3 ± 1.2 kg/m3
303.15 K, 711.93 kPa | 1011.4 ± 1.2 kg/m3
303.15 K, 712.98 kPa | 1011.3 ± 1.2 kg/m3
303.15 K, 713.84 kPa | 1011.2 ± 1.2 kg/m3
303.15 K, 714.72 kPa | 1011.3 ± 1.2 kg/m3
303.15 K, 715.75 kPa | 1011.3 ± 1.2 kg/m3
303.15 K, 716.62 kPa | 1011.3 ± 1.2 kg/m3
303.15 K, 717.84 kPa | 1011.3 ± 1.2 kg/m3
303.15 K, 719.05 kPa | 1011.4 ± 1.2 kg/m3
303.15 K, 720.1 kPa | 1011.3 ± 1.2 kg/m3
303.15 K, 720.79 kPa | 1011.3 ± 1.2 kg/m3
303.15 K, 721.67 kPa | 1011.2 ± 1.2 kg/m3
303.15 K, 722.71 kPa | 1011.3 ± 1.2 kg/m3
303.15 K, 723.76 kPa | 1011.3 ± 1.2 kg/m3
303.15 K, 724.45 kPa | 1011.3 ± 1.2 kg/m3
303.15 K, 725.83 kPa | 1011.4 ± 1.2 kg/m3
303.15 K, 726.87 kPa | 1011.3 ± 1.2 kg/m3
303.15 K, 727.92 kPa | 1011.4 ± 1.2 kg/m3
303.15 K, 728.79 kPa | 1011.3 ± 1.2 kg/m3
303.15 K, 730.17 kPa | 1011.2 ± 1.2 kg/m3
303.15 K, 730.7 kPa | 1011.4 ± 1.2 kg/m3
303.15 K, 731.58 kPa | 1011.3 ± 1.2 kg/m3
303.15 K, 733.65 kPa | 1011.3 ± 1.2 kg/m3
303.15 K, 734.7 kPa | 1011.3 ± 1.2 kg/m3
303.15 K, 735.91 kPa | 1011.2 ± 1.2 kg/m3
303.15 K, 736.78 kPa | 1011.2 ± 1.2 kg/m3
303.15 K, 737.82 kPa | 1011.3 ± 1.2 kg/m3
303.15 K, 739.04 kPa | 1011.4 ± 1.2 kg/m3
303.15 K, 740.26 kPa | 1011.3 ± 1.2 kg/m3
303.15 K, 741.3 kPa | 1011.3 ± 1.2 kg/m3
303.15 K, 742.16 kPa | 1011.4 ± 1.2 kg/m3
303.15 K, 743.2 kPa | 1011.3 ± 1.2 kg/m3
303.15 K, 744.08 kPa | 1011.2 ± 1.2 kg/m3
303.15 K, 745.47 kPa | 1011.3 ± 1.2 kg/m3
303.15 K, 746.33 kPa | 1011.3 ± 1.2 kg/m3
303.15 K, 747.56 kPa | 1011.3 ± 1.2 kg/m3
303.15 K, 748.76 kPa | 1011.4 ± 1.2 kg/m3
303.15 K, 749.63 kPa | 1011.3 ± 1.2 kg/m3
303.15 K, 750.5 kPa | 1011.4 ± 1.2 kg/m3
